The test system of assay [1] is E. coli. The class given is cell-based, E. coli (Top10 Strain). To be noted: median MIC; microbroth dilution, 1:2 serial dilution 18.2 to 1.8x10-2 μM, 4 × 10^6 CFU/mL, 1 h 37°C in wash buffer pH 7.4, then TSB overnight (18-24 h), OD600; triplicate per plate; mixture: each peptide at the reported concentration. As to the method:
(§1) Supplemental Information for Trevellin et al.
(§2) Peptide design and preparation […]
(§3) synthesized by GenScript (Piscataway, NJ) at >95% purity determined by HPLC and dissolved in DI water. Concentrations were measured by triplicate tryptophan absorbance readings at 280 nm (ε=5700 M–1cm–1, l=1 cm) using a ThermoScientific NanoDrop 2000 (Waltham, MA). Buforin II (BF2) included an F10W mutation used in many previous studies1-5 to allow for concentration measurements.
(§4) Bacteria included E. coli (Top10 Strain, Invitrogen/ThermoFisher) containing a plasmid for ampicillin resistance (Novagen) and/or B. subtilis (ATCC #6051). Bacterial growth was performed in TSB (trypticase soy broth) prepared at 3% w/v (30 g of media in 1 L) from BD Difco unless otherwise noted. Overnight cultures were picked from petri dishes or frozen stock and grown for 14-16 hours at 37 °C in TSB with shaking. E. coli overnight cultures were incubated with 25 μg/mL ampicillin. The overnight cultures were then diluted 1:100 in 25 mL TSB and incubated at 37 °C with shaking for 2.5 h. The culture was pelleted via centrifugation at 1500×g for 10 min at room temperature and resuspended in sterile cold wash buffer (10 mM sodium phosphate buffer and 10 mM sodium chloride, pH 7.4). These resuspended bacteria were then used for radial diffusion, microbroth dilution, and propidium iodide assays. […]
(§5) Microbroth dilution assay
(§6) Microbroth dilution assays were used to determine the minimum inhibitory concentration (MIC) of each peptide for E. coli and B. subtilis (ATCC #6051). A 1:2 serial dilution was prepared for a peptide across the top row of a 96-well plate. 100 μL of bacterial suspension (4 × 10^6 CFU/mL, diluted in sterile wash buffer, 10 mM sodium phosphate buffer and 10 mM sodium chloride, pH 7.4) and 10 μL of peptide were mixed to each well in subsequent rows of the plate. The 11 effective peptide concentrations ranged from 18.2 μM to 1.8x10-2 μM, with DI water used as a control, and each concentration was tested in triplicate per plate. After the bacteria and peptide mixtures were incubated in plates at 37°C for 1 hour, 100 μL of 6% w/v TSB was added to each well. For wells containing E. coli, ampicillin was added at a final concentration of 25 µg/ml. The plate was then incubated overnight (18-24 h) at 37°C. After incubation, OD600nm were measured using the SpectraMax M3 microplate reader (Molecular Devices). […]
(§7) relative permeability = F5/F0
(§8) Each peptide was tested with bacteria grown from at least three distinct overnight […]
(§9) The MTS assay is a colorimetric viability assay for mammalian cells. HEK 293 cells (ATCC CRL-1573) were grown in complete growth medium (EMEM, 10% fetal bovine serum, 1% penicillin-streptomycin). Cells were cultured in a T-75 maintenance flask, fed with fresh media every 1-2 days, and passaged approximately every 5-7 days once cells reached 70-90% confluence. During passaging, HEK 293 cells were plated in a 96-well plate at 20,000 cells/well and incubated for 4-6 hours (37 °C, 95% humidity, 5% CO2). Each column of cells (8 replicates) was then incubated overnight with 18.2 µM peptide or a control. After incubation, media was aspirated and refreshed for each well, […]

Assay [2] relates to B. subtilis. In kind it is cell-based, B. subtilis (ATCC #6051). To be noted: 1 h, pH 7.4. The protocol: as §1, §2, §3, §4, §5, §6, §7, §8, §9

Values after ≈ are worked out from the molar mass of the structure shown.

Turning to `CC[C@H](C)[C@H](NC(=O)[C@H](CCCNC(=N)N)NC(=O)[C@@H](NC(=O)[C@H](CCCCN)NC(=O)[C@H](CCCCN)NC(=O)[C@H](CC(N)=O)NC(=O)[C@H](CC(=O)O)NC(=O)[C@H](CCCNC(=N)N)NC(=O)[C@H](C)NC(=O)[C@@H]1CCCN1C(=O)[C@H](CCCCN)NC(=O)[C@H](CCCNC(=N)N)NC(=O)[C@H](CC(C)C)NC(=O)[C@H](CC(C)C)NC(=O)[C@H](CCCNC(=N)N)NC(=O)[C@H](Cc1c[nH]cn1)NC(=O)[C@@H](NC(=O)[C@H](CCCNC(=N)N)NC(=O)CNC(=O)[C@@H](NC(=O)[C@@H]1CCCN1C(=O)[C@H](Cc1c[nH]c2ccccc12)NC(=O)[C@H](CCC(N)=O)NC(=O)[C@H](CC(C)C)NC(=O)CNC(=O)[C@H](C)NC(=O)[C@H](CCCNC(=N)N)NC(=O)[C@H](CO)NC(=O)[C@H](CO)NC(=O)[C@H](CCCNC(=N)N)NC(=O)[C@@H](N)[C@@H](C)O)C(C)C)C(C)C)[C@@H](C)O)C(=O)N[C@@H](Cc1c[nH]c2ccccc12)C(=O)N1CCC[C@H]1C(=O)N[C@@H](CCCNC(=N)N)C(=O)N[C@@H](Cc1c[nH]cn1)C(=O)N[C@@H](CC(C)C)C(=O)N[C@@H](CCC(N)=O)C(=O)N[C@@H](CC(C)C)C(=O)N[C@@H](C)C(=O)N[C@H](C(=O)N[C@@H](CCCNC(=N)N)C(=O)N[C@@H](CC(N)=O)C(=O)O)C(C)C` [BF2-P-DesHDAP1 (BPD)], in assay [1], the “MIC against E. coli” value turned out to be 1.1 µM (≈ 5.53 µg/mL). The “MIC against B. subtilis” value in assay [2] came to 4.6 µM (≈ 23.1 µg/mL).

The record behind these values is PMC11571015, “Hybrids of Membrane-Translocating Antimicrobial Peptides Show Enhanced Activity through Membrane Permeabilization” (ACS Medicinal Chemistry Letters, 2024).
